Assay [1] deals with Aβ meshwork in human cortical cultures (HCC). Briefly: Aβ meshwork formation on human cortical cultures (Aβ immunofluorescence). In kind it is cell-based. As to conditions: for Inhibition of Aβ meshwork formation (in words): HCC. The method, then: (§1) Tissue culture plates were coated with polyethyleneimine (PEI) in 150 mM sodium borate, pH 8.5, and incubated overnight at room temperature. Prior to adding cells, the wells were washed with PBS and Minimal Essential Media (MEM with 10% FBS) was added until cells were ready for plating. Human fetal cerebral cortex (E13-E16) was rinsed with Hank's Balanced Salt Solution (HBSS). Tissue was triturated in 1 mg of DNAse in HBSS. This suspension was filtered through a 100 micron nylon cell strainer and spun at 250×g for 5 minutes. The cells were resuspended in trypsin and incubated at 37° C. for 20 minutes. Modified Minimal Essential Media (MMEM with 10% FBS and 1 mg of DNase) was added and the cells were resuspended; then collected again by centrifugation. Cells were resuspended in MMEM containing B27, and plated in washed PEI-coated plates at 125,000 cells/well in 96 well plates or at 2.5 million cells/well in 6 well plates. The human cortical cultures (HCC) were incubated for 3 weeks with biweekly medium exchanges prior to treatment.
(§2) Aβ was generated by adding double distilled water (ddH2O) to Aβ to make up a 1 mM stock. This was aged for 3 days at 37° C., aliquoted, and stored frozen at −20° C. Soluble Aβ was made by adding DMSO to Aβ to make a 7.5 mM stock, sonicating for 30 minutes, aliquoting, and freezing at −20° C. Neurotoxic Aβ was generated by adding ddH2O to Aβ, aliquoting, and freezing at −20° C.
HCC treated with Aβ for 72 hours were fixed with 4% paraformaldehyde, stained with 5 μg/ml anti-Aβ-3D6-biotin, and visualized with 10 μg/ml streptavidin-FITC (Jackson).

In assay [2] the test system is human cortical cultures (HCC). Briefly: Aβ neurotoxicity in human cortical neurons (alamar blue). In kind it is cell-based. As to conditions: for Maximal inhibition of toxicity (%): Aβ neurotoxicity in HCC, 3 days; for Inhibition of Aβ neurotoxicity (in words): HCC. The method, then:
as §1, §2
HCC were pretreated with antibodies or ligands for 30 minutes in neuronal medium (MEM) supplemented with glutamine and penicillin/streptomycin (basal media). One micromolar Aβ in basal medium was added for 1 hour. The medium was removed and the HCC were treated with antibodies or ligands and 20 μM soluble Aβ in basal medium for 3 days. At three days, the toxicity was determined by incubating in 10% alamar blue in basal medium for two hours. Fluorescence levels were measured relative to control and Aβ treated wells in triplicate.
On the technique in general: Resazurin is reduced to fluorescent resorufin, in cell work by metabolically active cells.

For a further assay, the system named is LTP in the dentate gyrus. Briefly: Aβ-mediated inhibition of LTP in the dentate gyrus in vitro (hippocampal slices, field EPSPs). In kind it is cell-based, rat. As to conditions: for Suppression of Aβ inhibition of LTP in vitro (figure legends): dentate gyrus in vitro. The method, then: All experiments were carried out on transverse slices of the rat hippocampus (males, age 3-4 weeks, weight 40-80 g) or mice (males, age 3-4 months). The brains were rapidly removed after decapitation and placed in cold oxygenated (95% O2/5% CO2) media. Slices were cut at a thickness of 350 μm using an Intracell Plus 1000 and placed in a storage container containing oxygenated medium at room temperature (20-22° C.) for 1 hr. The slices were then transferred to a recording chamber for submerged slices and continuously superfused at a rate of 5-6 ml/min at 30-32° C. The control media contained (in mM): NaCl, 120; KCl 2.5, NaH2PO4, 1.25; NaHCO3 26; MgSO4, 2.0; CaCl2, 2.0; D-glucose 10. All solutions contained 100 μM picrotoxin (Sigma) to block GABAA-mediated activity.
Standard electrophysiological techniques were used to record field potentials. Presynaptic stimulation was applied to the medial perforant pathway of the dentate gyrus using a bipolar insulated tungsten wire electrode, and field excitatory postsynaptic potentials (EPSPs) were recorded at a control test frequency of 0.033 Hz from the middle one-third of the molecular layer of the dentate gyrus with a glass microelectrode. The inner blade of the dentate gyrus was used in all studies. In each experiment, an input-output curve (afferent stimulus intensity versus EPSP amplitude) was plotted at the test frequency. For all experiments, the amplitude of the test EPSP was adjusted to one-third of maximum (˜1.2 mV). LTP was evoked by 8 trains of high frequency stimulation (HFS), each of 8 stimuli at 200 Hz, inter-train interval 2s, with the stimulation voltage increased during the HFS so as to evoke an initial EPSP of the train of double the normal test EPSP amplitude. Control (vehicle alone) and experimental levels of LTP were measured on slices prepared from the same hippocampus. Recordings were analysed using p-CLAMP (Axon Instruments, CA, USA). The values reported herein were the means±S.E.M. for n slices. Two-tailed Student's t-test was used for statistical comparison.
Synthetic Aβ (1-42) was obtained from Bachem. For the in vitro experiments, synthetic Aβ1-42 was prepared as a stock solution of 50 μM in ammonium hydroxide (0.1%), stored at −20° C., and then added to physiological medium immediately prior to each experiment. For the in vivo experiments, synthetic Aβ(1-42) (Bachem) was re-suspended in ice-cold milliQ water or Teplow. An aliquot was removed and centrifuged at 100,000 g for 3 h, conditions known to pellet fibrils and protofibrils (Klyubin et al., 2004).
The following integrin-αv antibodies (all IgG1 isotype) were used in the studies: 18C7, 17E6 and 20A9 (all from Calbiochem). The control antibodies used were 7H10, an IgG2a mouse antibody against human ICAM-1 and 27/1, an IgG1 isotype. Other compounds used were echistatin (Source), SM256 (3-[1-[3-(N-imidazol-2-ylamino)propyl]indazol-5-ylcarbonylamino]-2(S)-(2,4,6-trimethylbenzenesulfonylamino)propionic acid trifluoroacetate) which was prepared by Elan Pharmaceuticals (recoded as ELN 151993) according to the methods of Van Maes et al, 1994, superfibernectin (Sigma) and phalloidin (Calbiochem). In the in vivo experiments, SM256 was prepared for i.p administration in a suspension of Tween 80 (Sigma) in saline (15% v/v).

The subject of another assay is LTP in the CA1 area. Briefly: Aβ-mediated inhibition of LTP in the CA1 in vivo. Also noted: species or system rat.
For another assay, the system named is Human cortical neurons. Description: Amylin two component toxicity. In kind it is cell-based. As to conditions: seed amylin 1 hour, then soluble amylin; toxicity after 1 day. The method, then:
Seed or aggregated amylin (1 mM) from CPR, Inc. (641-80, lot NG-0213) was made by adding 200 μl water/mg powder and then aging the solution for three days at 37° C. Soluble amylin (5 mM) was prepared by adding 40 μl DMSO/mg powder and sonicating the mixture for 30 minutes in a water bath. Both stock solutions were aliquoted and frozen until ready for use. Soluble amylin stock was diluted to 20 μM in culture medium just prior to use and filtered through an Amicon 30 filter that had been pre-washed with water. Filtered material was then diluted to its appropriate concentration.
Human cortical neurons (at 125,000 cells/96 well) were treated for 1 hour with seed amylin at 5 μM, 100 μl/well. Cells were aspirated and soluble amylin was added back at 5 μM per 100 μl/well. For compound studies, 50 μl of 2× compound was added before adding the soluble amylin.

Values joined by “and” are separate entries in the source; they are usually repeats but may differ in a detail not shown here. Identical values can stand only once.

For Laminin, in assay [1], the “Inhibition of Aβ meshwork formation (in words)” value was “not capable of inhibiting Aβ meshwork or neurotoxicity”. Moreover, in assay [2], the “Maximal inhibition of toxicity (%)” value worked out at 20% and the “Inhibition of Aβ neurotoxicity (in words)” value is on record as “not capable of inhibiting Aβ meshwork or neurotoxicity”.
Consider “echistatin (QCESGPCCRNCKFLKEGTICKRARGDDMDDYCNGKTCDCPRNPHKGPAT)”, for which, in the assay on LTP in the dentate gyrus, the “Suppression of Aβ inhibition of LTP in vitro (figure legends)” value is “suppresses inhibition of LTP by Aβ”. For the same molecule, the “LTP in the presence of Aβ plus echistatin” value in the assay with LTP in the dentate gyrus (echistatin 50 nM plus Aβ, n=5) was 143±6%. Besides, in the assay with LTP in the dentate gyrus (echistatin 50 nM, no Aβ), the “LTP with echistatin alone” value is given as 158±5%.
Regarding `Cc1cc(C)c(S(=O)(=O)N[C@@H](CNC(=O)c2ccc3c(cnn3CCCNc3ncc[nH]3)c2)C(=O)O)c(C)c1.O=C(O)C(F)(F)F` [SM256, 3-[1-[3-(N-imidazol-2-ylamino)propyl]indazol-5-ylcarbonylamino]-2(S)-(2,4,6-trimethylbenzenesulfonylamino)propionic acid trifluoroacetate], in the assay on LTP in the dentate gyrus (SM256 10 μl M plus Aβ, n=5), the “LTP in the presence of Aβ plus SM256” value came out at 129±5%. The “LTP with SM256 alone” value in the assay with LTP in the dentate gyrus (SM256 10 μl M, no Aβ) was 148±7%. The “Suppression of Aβ inhibition of LTP in vitro (figure legends)” value with LTP in the dentate gyrus is recorded as “suppresses inhibition of LTP by Aβ”. Also, in the assay on LTP in the CA1 area (CA1 area in vivo), the “Suppression of soluble Aβ inhibition of LTP in vivo (figure legends)” value is reported as “suppresses inhibition of LTP by soluble Aβ”. For the same molecule, the “LTP after SM256 plus soluble Aβ” value in the assay on LTP in the CA1 area (SM256 40 mg in 1.2 ml vehicle i.p., Aβ 50 pmol i.c.v. 40 min later, 10 min before HFS) is recorded as 133±5%. Besides, the “Effect of SM256 alone on baseline synaptic transmission or control LTP” value with LTP in the CA1 area (SM256 40 mg in 1.2 ml vehicle, i.p.) is “no discernible effect on baseline synaptic transmission or control LTP”.
With “Aβ: Synthetic Aβ (1-42) from Bachem, used to inhibit LTP”, the “LTP (EPSP, % baseline) in the presence of Aβ alone” value in the assay with LTP in the dentate gyrus (Aβ 500 nM, 1 h post-HFS, dentate gyrus slices) was 105±3 % baseline and 105±6 % baseline and 103±3 % baseline. The “LTP (% baseline) in the presence of soluble fibril-free Aβ” value in the assay on LTP in the CA1 area (Aβ 50 pmol in 5 μl i.c.v., 10 min prior to HFS, 3 h post-HFS, anaesthetized rats) is reported as 105±5%. Moreover, in the assay on LTP in the CA1 area (vehicle i.p., Aβ 50 pmol i.c.v.), the “LTP after peripheral vehicle followed by central injection of Aβ” value came out at 103±10%.
On to `C=C1[C@@H](C)[C@H]2[C@H](Cc3ccccc3)NC(=O)[C@]23[C@H](OC(C)=O)/C=C/[C@@](C)(O)C(=O)[C@@H](C)C/C=C/[C@H]3[C@@H]1O` [cytochalasin D], for which, in the assay on Human cortical neurons, the “Protection against amylin two component toxicity (in words)” value was “amylin two component toxicity is further inhibited”.
“Fibronectin: αvβ1 integrin ligand, large multidomain glycoprotein”: in assay [1] (Aβ meshwork on HCC, Table 1), the “Meshwork Inhibition” value was “Yes”. Also, the “Inhibition of Aβ meshwork formation (in words)” value in assay [1] is “capable of inhibiting Aβ meshwork formation and neurotoxicity”. Besides, in assay [2], the “Maximal inhibition of toxicity (%)” value is 32%; the “Inhibition of Aβ neurotoxicity (in words)” value is “capable of inhibiting Aβ meshwork formation and neurotoxicity”.

The record behind these values is US7829087B2, “Methods of treating cognitive impairment” (Elan Pharmaceuticals, Inc., priority 2001, dated 2010).
